In the supplement of paper PMC7017272:
± gives the standard deviation of the averaged measurements.

Tests used:
Conditions in all cases: treatment time: 3 days
[1] = system: UT-SCC-24A; test: drug sensitivity score (DSS); higher = more sensitive
Experimental: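 HNSCC cell lines (500 cells/well, 384-well) were cultured on plastic, on top of (2D) or embedded (3D) in Matrigel or human leiomyoma matrix Myogel (500 ug/mL; Myogel 3D mixed with rat collagen I). Cells were treated for 3 days with 5 ten-fold concentrations of each drug, and viability was read by CellTiter-Glo. Suffixes _1/_2/_3 on drug names are replicates.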

[2] = system: UT-SCC-106A; test: maximal % inhibition of viability relative to DMSO; higher = stronger effect
Experimental: (§1)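 HNSCC cell lines (500 cells/well, 384-well) were cultured on plastic, on top of (2D) or embedded (3D) in Matrigel or human leiomyoma matrix Myogel (500 ug/mL; Myogel 3D mixed with rat collagen I). Cells were treated for 3 days with 5 ten-fold concentrations of each drug, and viability was read by CellTiter-Glo. Viability was normalised to DMSO and benzethonium chloride controls and fitted with the FIMM DSRT pipeline to give IC50 (nM), maximal % inhibition and DSS. Suffixes _1/_2/_3 are replicates. Only inhibition-mode (IC50) fits are kept.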

[3] = system: UT-SCC-14; test: as above
Experimental: as §1

[4] = system: UT-SCC-24B; test: as above
Experimental: as §1

[5] = system: UT-SCC-28; test: as above
Experimental: as §1

[6] = system: UT-SCC-40; test: as above
Experimental: as §1

[7] = system: UT-SCC-42A; test: as above
Experimental: as §1

[8] = system: UT-SCC-42B; test: as above
Experimental: as §1

[9] = system: UT-SCC-44; test: as above
Experimental: as §1

[10] = system: UT-SCC-73; test: as above
Experimental: as §1

[11] = system: UT-SCC-81; test: as above
Experimental: as §1

[12] = system: UT-SCC-8; test: as above
Experimental: as §1

[13] = system: UT-SCC-24A; test: as above
Experimental: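 HNSCC cell lines (500 cells/well, 384-well) were cultured on plastic, on top of (2D) or embedded (3D) in Matrigel or human leiomyoma matrix Myogel (500 ug/mL; Myogel 3D mixed with rat collagen I). Cells were treated for 3 days with 5 ten-fold concentrations of each drug, and viability was read by CellTiter-Glo. Viability was normalised to DMSO (0% inhibition) and 100 uM benzethonium chloride (100% inhibition) controls and fitted with the FIMM DSRT pipeline to give IC50 (nM), maximal % inhibition and the drug sensitivity score (DSS). Suffixes _1/_2/_3 on drug names are replicates.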

[14] = system: UT-SCC-106A; test: relative IC50 (midpoint of the fitted curve; maximal inhibition may be below 50%); higher = less potent
Outline: (§2)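 Viability was read with CellTiter-Glo 2.0 luminescence and scaled against vehicle (0.1% DMSO) and cell-killing control wells. The assay used HPV-negative HNSCC cell lines at 500 cells/well in 384-well plates, grown on plastic, on Matrigel or Myogel coatings (500 µg/mL), or embedded in Matrigel or Myogel plus rat collagen I, and treated for 3 days at five 10-fold concentrations. IC50, maximal inhibition and drug sensitivity score were derived from percent-inhibition dose–response curves fitted in the FIMM pipeline.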

[15] = system: UT-SCC-24B; test: as above
Outline: as §2

[16] = system: UT-SCC-40; test: as above
Outline: as §2

[17] = culture condition: embedded in Matrigel
[18] = culture condition: embedded in Myogel + collagen I
[19] = culture condition: on top of Matrigel
[20] = culture condition: on top of Myogel
[21] = culture condition: plastic 2D (no matrix)

## Cn1c(=O)c(F)c(Nc2ccc(I)cc2F)c2c(=O)n(C[C@@H](O)CO)cnc21 [TAK-733]
[1]; [17]
  drug sensitivity score: 32.5 ± 1.7 DSS
[1]; [18]
  drug sensitivity score: 17 ± 1.9 DSS
[1]; [19]
  drug sensitivity score: 27 ± 0.5 DSS
[1]; [20]
  drug sensitivity score: 9.37 ± 1.8 DSS
[1]; [21]
  drug sensitivity score: 24.6 ± 0.76 DSS
[2]; [17]
  maximal % inhibition of viability: 52.3 ± 2.4%
[2]; [18]
  maximal % inhibition of viability: 19 ± 5.5%
[2]; [19]
  maximal % inhibition of viability: 61.9 ± 4.9%
[2]; [20]
  maximal % inhibition of viability: 17.8 ± 1.7%
[2]; [21]
  maximal % inhibition of viability: 63.4 ± 1.2%
[3]; [17]
  maximal % inhibition of viability: 42.3 ± 17%
[3]; [18]
  maximal % inhibition of viability: 31.8 ± 2.2%
[3]; [19]
  maximal % inhibition of viability: 33.3 ± 3.4%
[3]; [20]
  maximal % inhibition of viability: 28.6 ± 2.2%
[3]; [21]
  maximal % inhibition of viability: 20.4 ± 13%
[4]; [17]
  maximal % inhibition of viability: 67.3 ± 1.5%
[4]; [18]
  maximal % inhibition of viability: 67.2 ± 1.2%
[4]; [19]
  maximal % inhibition of viability: 64.3 ± 1.3%
[4]; [20]
  maximal % inhibition of viability: 55.5 ± 2.2%
[4]; [21]
  maximal % inhibition of viability: 79.9 ± 1.1%
[5]; [17]
  maximal % inhibition of viability: 36.6 ± 7.2%
[5]; [18]
  maximal % inhibition of viability: 22.7 ± 21%
[5]; [19]
  maximal % inhibition of viability: 41.5 ± 1.7%
[5]; [21]
  maximal % inhibition of viability: 25.6 ± 1%
[6]; [17]
  maximal % inhibition of viability: 78.2 ± 1.2%
[6]; [18]
  maximal % inhibition of viability: 64 ± 2.1%
[6]; [19]
  maximal % inhibition of viability: 72.9 ± 2.1%
[6]; [20]
  maximal % inhibition of viability: 51 ± 0.89%
[6]; [21]
  maximal % inhibition of viability: 53.7 ± 0.74%
[7]; [17]
  maximal % inhibition of viability: 57.9 ± 2.6%
[7]; [18]
  maximal % inhibition of viability: 41.5 ± 27%
[7]; [19]
  maximal % inhibition of viability: 59.9 ± 5.2%
[7]; [20]
  maximal % inhibition of viability: 42.1 ± 5.3%
[7]; [21]
  maximal % inhibition of viability: 52.7 ± 3.6%
[8]; [17]
  maximal % inhibition of viability: 71.3 ± 7.9%
[8]; [19]
  maximal % inhibition of viability: 54 ± 1.3%
[8]; [20]
  maximal % inhibition of viability: 30.2 ± 3.9%
[8]; [21]
  maximal % inhibition of viability: 38.4 ± 5.8%
[9]; [17]
  maximal % inhibition of viability: 75.4 ± 0.62%
[9]; [18]
  maximal % inhibition of viability: 37.1 ± 8.1%
[9]; [19]
  maximal % inhibition of viability: 64.6 ± 10%
[9]; [20]
  maximal % inhibition of viability: 38.3 ± 4.8%
[9]; [21]
  maximal % inhibition of viability: 53.6 ± 3.3%
[10]; [17]
  maximal % inhibition of viability: 79.1 ± 1.5%
[10]; [18]
  maximal % inhibition of viability: 48.3 ± 16%
[10]; [19]
  maximal % inhibition of viability: 74.1 ± 1%
[10]; [20]
  maximal % inhibition of viability: 59.9 ± 4.8%
[10]; [21]
  maximal % inhibition of viability: 68.4 ± 3.9%
[11]; [17]
  maximal % inhibition of viability: 87.1 ± 4%
[11]; [18]
  maximal % inhibition of viability: 25 ± 12%
[11]; [19]
  maximal % inhibition of viability: 71.5 ± 6%
[11]; [20]
  maximal % inhibition of viability: 24.3 ± 5.5%
[11]; [21]
  maximal % inhibition of viability: 36.4 ± 2.3%
[12]; [17]
  maximal % inhibition of viability: 74.4 ± 12%
[12]; [18]
  maximal % inhibition of viability: 35.5 ± 26%
[12]; [19]
  maximal % inhibition of viability: 65.3 ± 12%
[12]; [20]
  maximal % inhibition of viability: 46.8 ± 21%
[12]; [21]
  maximal % inhibition of viability: 56.1 ± 17%
[13]; [17]
  maximal % inhibition of viability: 81.5 ± 1.9%
[13]; [18]
  maximal % inhibition of viability: 53.9 ± 2.1%
[13]; [19]
  maximal % inhibition of viability: 77.7 ± 1.1%
[13]; [20]
  maximal % inhibition of viability: 45.9 ± 4%
[13]; [21]
  maximal % inhibition of viability: 70.6 ± 1.3%
[14]; [17]
  relative IC50: 2.16 nM
[14]; [19]
  relative IC50: 2.3 nM
[14]; [21]
  relative IC50: 2.3 nM
[15]; [18]
  relative IC50: 62.7 nM
[15]; [19]
  relative IC50: 39.5 nM
[16]; [17]
  relative IC50: 2.68 nM
[16]; [18]
  relative IC50: 6.76 nM
[16]; [19]
  relative IC50: 4.29 nM
[16]; [20]
  relative IC50: 13.8 nM
[16]; [21]
  relative IC50: 10.6 nM
